Test results reported in patent publication US6620833B1, “Substituted benzimidazoles, production and use thereof as agents for combating parasitic protozoas” (Bayer Aktiengesellschaft, priority 1998, dated 2003).

How the values were obtained:
Format in all cases: in vivo
Eimeria maxima = test: Cage experiment on coccidiosis/chicks, E. maxima readout; details: second symbol of cell
Eimeria tenella = test: Cage experiment on coccidiosis/chicks, E. tenella readout; details: third symbol of cell
Eimeria acervulina = test: Cage experiment on coccidiosis/chicks, E. acervulina readout; details: first symbol of cell
Also: key: 2=full action; 1=slight action; 0=inactive; D=death.

Structure (SMILES)	Efficacy against Eimeria maxima (Eimeria maxima; Table 4, dose 2.5 ppm)	Efficacy against Eimeria maxima (Eimeria maxima; Table 4, dose 5 ppm)	Efficacy against Eimeria maxima (Eimeria maxima; Table 4, dose 10 ppm)	Efficacy against Eimeria tenella (Eimeria tenella; Table 4, dose 2.5 ppm)	Efficacy against Eimeria tenella (Eimeria tenella; Table 4, dose 5 ppm)	Efficacy against Eimeria tenella (Eimeria tenella; Table 4, dose 10 ppm)	Efficacy against Eimeria acervulina (Eimeria acervulina; Table 4, dose 2.5 ppm)	Efficacy against Eimeria acervulina (Eimeria acervulina; Table 4, dose 5 ppm)	Efficacy against Eimeria acervulina (Eimeria acervulina; Table 4, dose 10 ppm)
COC(=O)N(C)Cn1c(C(F)(F)F)nc2c(Br)cc3c(c21)OC(F)(F)C(F)(F)O3 [Ex. 2]	2	2	D D D	1	2	D D D	1	2	D D D
COC(=O)N(C)Cn1c(C(F)(F)F)nc2c(Cl)cc3c(c21)OC(F)(F)C(F)(F)O3 [Ex. 3]	2	2	2	1	2	2	0	2	2
CCN(Cn1c(C(F)(F)F)nc2c(Cl)cc3c(c21)OC(F)(F)C(F)(F)O3)C(=O)OC [Ex. 4]	2	1	1	1	1	1	1	1	1
CCCCN(Cn1c(C(F)(F)F)nc2c(Br)cc3c(c21)OC(F)(F)C(F)(F)O3)C(=O)OCC [Ex. 5]	2	1	1	1	1	2	1	1	1
CCOC(=O)N(Cn1c(C(F)(F)F)nc2c(Br)cc3c(c21)OC(F)(F)C(F)(F)O3)C(C)C [Ex. 6]	1	2	2	1	2	2	1	2	2
CCOC(=O)N(Cn1c(C(F)(F)F)nc2c(Cl)cc3c(c21)OC(F)(F)C(F)(F)O3)C(C)C [Ex. 7]	1	2	2	2	2	1	2	2	2
COC(=O)N(Cn1c(C(F)(F)F)nc2c(Cl)cc3c(c21)OC(F)(F)C(F)(F)O3)c1ccccc1C [Ex. 8]	0	1	2	0	1	2	0	0	2
CCOC(=O)N(Cn1c(C(F)(F)F)nc2c(Cl)cc3c(c21)OC(F)(F)C(F)(F)O3)C1CCCCC1 [Ex. 9]	1	2	2	1	1	2	0	2	2
